{"source": "ChEMBL document CHEMBL5696441", "about": "(Nat Chem Biol, 2011)", "key": {"[1]": {"system": "Phosphatidylinositol 4,5-bisphosphate 3-kinase catalytic subunit alpha isoform (Homo sapiens), P42336 [H1047Y]", "assay": "Inhibition of PIK3CA H1047Y mutant (unknown origin) assessed as remaining activity at 1 uM by Kinome scan method relative to control; call rule not given here"}, "[2]": {"assay": "Anti-inflammatory activity against human derived medium respond PBMC cells assessed as inhibition in stimulated IL-4 cytokine release incubated for 2 hrs in the presence of LPS/SEB/aCD28 by Luminex based sandwich immunoassay", "assay_type": "functional, cell-based"}, "[3]": {"biological_target": "Mitogen-activated protein kinase kinase kinase 2 (Homo sapiens) (UniProt Q9Y2U5)", "assay": "Inhibition of human MEKK2 assessed as residual activity at 1 uM using casein as substrate in presence of 33P-ATP by ProQinase assay relative to control"}, "[4]": {"biological_target": "Serine/threonine-protein kinase TAO1 (Homo sapiens) (UniProt Q7L7X3)", "sequence (Q7L7X3 whole entry)": "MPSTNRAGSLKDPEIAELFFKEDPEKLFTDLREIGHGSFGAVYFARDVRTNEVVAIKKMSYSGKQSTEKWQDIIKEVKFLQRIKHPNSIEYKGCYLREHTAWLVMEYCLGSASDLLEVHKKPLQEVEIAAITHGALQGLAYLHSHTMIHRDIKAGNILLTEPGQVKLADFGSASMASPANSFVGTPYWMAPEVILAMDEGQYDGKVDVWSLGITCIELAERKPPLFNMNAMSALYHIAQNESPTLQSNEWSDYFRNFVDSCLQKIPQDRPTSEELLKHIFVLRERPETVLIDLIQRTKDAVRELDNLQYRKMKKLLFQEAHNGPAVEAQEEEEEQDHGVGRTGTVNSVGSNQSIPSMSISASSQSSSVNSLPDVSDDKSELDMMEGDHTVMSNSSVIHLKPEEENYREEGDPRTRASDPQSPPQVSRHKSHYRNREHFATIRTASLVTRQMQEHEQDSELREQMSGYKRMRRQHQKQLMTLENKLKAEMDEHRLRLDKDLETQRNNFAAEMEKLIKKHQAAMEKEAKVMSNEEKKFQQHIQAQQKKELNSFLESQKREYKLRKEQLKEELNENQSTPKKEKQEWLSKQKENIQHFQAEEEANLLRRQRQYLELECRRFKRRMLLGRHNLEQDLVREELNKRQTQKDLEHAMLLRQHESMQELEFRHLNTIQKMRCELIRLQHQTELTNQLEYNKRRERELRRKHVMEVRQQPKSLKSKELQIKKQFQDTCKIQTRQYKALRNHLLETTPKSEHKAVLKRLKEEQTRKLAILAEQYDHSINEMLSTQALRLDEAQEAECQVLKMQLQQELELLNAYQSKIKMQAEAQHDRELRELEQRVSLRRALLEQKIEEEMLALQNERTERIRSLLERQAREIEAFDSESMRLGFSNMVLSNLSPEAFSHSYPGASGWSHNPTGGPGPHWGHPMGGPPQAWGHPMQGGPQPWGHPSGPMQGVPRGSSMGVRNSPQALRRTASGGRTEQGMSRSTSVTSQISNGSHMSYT", "assay": "Inhibition of TAOK1 (unknown origin) assessed as remaining activity at 1 uM by Kinome scan method relative to control"}, "[5]": {"biological_target": "NT-3 growth factor receptor (Homo sapiens) (UniProt Q16288)", "assay": "Inhibition of human TRKC assessed as residual activity at 1 uM using polyEy as substrate in presence of 33P-ATP by ProQinase assay relative to control"}, "[6]": {"biological_target": "Ribosomal protein S6 kinase alpha-2 (Homo sapiens) (UniProt Q15349)", "assay": "Inhibition of human RPS6KA2 assessed as residual activity at 1 uM using bio-4xCHKT as substrate in presence of 33P-ATP by ProQinase assay relative to control"}, "[7]": {"biological_target": "NUAK family SNF1-like kinase 2 (Homo sapiens) (UniProt Q9H093)", "sequence (Q9H093 whole entry)": "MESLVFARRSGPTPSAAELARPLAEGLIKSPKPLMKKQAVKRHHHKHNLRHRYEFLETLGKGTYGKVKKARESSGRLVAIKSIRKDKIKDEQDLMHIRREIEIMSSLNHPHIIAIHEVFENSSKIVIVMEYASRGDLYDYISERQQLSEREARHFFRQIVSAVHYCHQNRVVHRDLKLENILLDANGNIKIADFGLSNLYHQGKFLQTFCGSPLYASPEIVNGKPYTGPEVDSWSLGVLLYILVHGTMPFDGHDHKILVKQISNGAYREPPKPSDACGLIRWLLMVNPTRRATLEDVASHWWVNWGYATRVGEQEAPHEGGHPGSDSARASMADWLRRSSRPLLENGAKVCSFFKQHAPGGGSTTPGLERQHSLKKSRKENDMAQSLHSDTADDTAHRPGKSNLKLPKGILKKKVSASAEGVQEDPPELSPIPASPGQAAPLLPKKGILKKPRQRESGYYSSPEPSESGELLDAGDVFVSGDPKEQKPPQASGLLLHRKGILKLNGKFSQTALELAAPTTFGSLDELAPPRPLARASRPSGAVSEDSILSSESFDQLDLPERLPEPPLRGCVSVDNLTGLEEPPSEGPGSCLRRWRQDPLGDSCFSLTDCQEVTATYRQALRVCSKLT", "assay": "Inhibition of SNARK (unknown origin) assessed as remaining activity at 1 uM by Kinome scan method relative to control"}, "[8]": {"biological_target": "Platelet-derived growth factor receptor alpha (Homo sapiens) (UniProt P16234)", "sequence (P16234 whole entry)": "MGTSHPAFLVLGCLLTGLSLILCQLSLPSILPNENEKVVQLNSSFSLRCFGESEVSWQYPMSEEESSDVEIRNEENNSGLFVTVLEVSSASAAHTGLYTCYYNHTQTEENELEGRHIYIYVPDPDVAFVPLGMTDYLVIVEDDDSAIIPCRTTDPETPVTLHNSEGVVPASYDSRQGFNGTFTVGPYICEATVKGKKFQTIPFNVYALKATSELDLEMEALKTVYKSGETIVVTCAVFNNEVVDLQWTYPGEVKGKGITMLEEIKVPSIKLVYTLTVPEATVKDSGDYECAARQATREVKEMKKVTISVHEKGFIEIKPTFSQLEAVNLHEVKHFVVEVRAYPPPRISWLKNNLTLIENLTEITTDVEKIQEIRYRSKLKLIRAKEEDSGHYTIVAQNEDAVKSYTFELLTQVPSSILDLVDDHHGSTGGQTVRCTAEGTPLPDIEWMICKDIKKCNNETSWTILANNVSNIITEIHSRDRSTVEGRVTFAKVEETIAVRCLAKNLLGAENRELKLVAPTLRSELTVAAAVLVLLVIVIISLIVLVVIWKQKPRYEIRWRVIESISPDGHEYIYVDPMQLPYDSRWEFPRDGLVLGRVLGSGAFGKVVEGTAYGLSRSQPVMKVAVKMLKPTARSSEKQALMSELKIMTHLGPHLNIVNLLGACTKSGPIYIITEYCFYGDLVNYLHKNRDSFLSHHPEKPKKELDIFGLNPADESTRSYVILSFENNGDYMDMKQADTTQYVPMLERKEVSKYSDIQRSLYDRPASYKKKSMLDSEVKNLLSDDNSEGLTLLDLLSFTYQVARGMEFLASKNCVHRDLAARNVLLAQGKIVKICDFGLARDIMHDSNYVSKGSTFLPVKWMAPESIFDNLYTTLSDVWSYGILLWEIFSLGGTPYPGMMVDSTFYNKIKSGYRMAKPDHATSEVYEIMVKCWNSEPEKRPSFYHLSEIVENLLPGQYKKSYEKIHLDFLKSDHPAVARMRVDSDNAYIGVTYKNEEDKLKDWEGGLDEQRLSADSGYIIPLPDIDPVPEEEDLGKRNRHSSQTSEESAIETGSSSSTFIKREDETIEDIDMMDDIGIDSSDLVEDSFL", "assay": "Inhibition of human PDGFRalpha assessed as residual activity at 1 uM using Poly(Ala,Glu,Lys,Tyr)6:2:5:1 as substrate in presence of 33P-ATP by ProQinase assay relative to control"}, "[9]": {"biological_target": "Serine/threonine-protein kinase Sgk2 (Homo sapiens) (UniProt Q9HBY8)", "sequence (Q9HBY8 whole entry)": "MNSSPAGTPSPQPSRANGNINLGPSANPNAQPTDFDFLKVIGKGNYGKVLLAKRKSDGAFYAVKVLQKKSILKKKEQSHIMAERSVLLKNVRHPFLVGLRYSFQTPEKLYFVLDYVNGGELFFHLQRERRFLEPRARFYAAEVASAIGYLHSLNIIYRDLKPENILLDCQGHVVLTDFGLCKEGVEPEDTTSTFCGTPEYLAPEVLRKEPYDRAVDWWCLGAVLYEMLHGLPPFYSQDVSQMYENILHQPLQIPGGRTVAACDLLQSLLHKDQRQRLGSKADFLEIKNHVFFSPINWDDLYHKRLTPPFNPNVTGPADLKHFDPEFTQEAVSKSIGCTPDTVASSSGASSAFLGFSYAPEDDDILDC", "assay": "Inhibition of human SGK2 assessed as residual activity at 1 uM using RBER-GSK3(14-27) as substrate in presence of 33P-ATP by ProQinase assay relative to control"}, "Mus musculus": {"system": "Mus musculus", "assay": "In vivo anti-inflammatory activity in Gal/LPS induced mouse assessed as inhibition in TNF-alpha release at 3 mg/kg, po administered for 1 hrs relative to control", "assay_type": "functional"}, "[10]": {"biological_target": "Casein kinase I isoform gamma-1 (Homo sapiens) (UniProt Q9HCP0)", "assay": "Inhibition of human CK1gamma1 assessed as residual activity at 1 uM using casein as substrate in presence of 33P-ATP by ProQinase assay relative to control"}, "[11]": {"biological_target": "Tyrosine-protein kinase BTK (Homo sapiens) (UniProt Q06187)", "assay": "Inhibition of human BTK assessed as residual activity at 1 uM using PolyEY as substrate in presence of 33P-ATP by ProQinase assay relative to control"}, "[12]": {"biological_target": "Death-associated protein kinase 2 (Homo sapiens) (UniProt Q9UIK4)", "assay": "Inhibition of human DAPK2 assessed as residual activity at 1 uM using RB-S6P as substrate in presence of 33P-ATP by ProQinase assay relative to control"}, "[13]": {"biological_target": "Serine/threonine-protein kinase 24 (Homo sapiens) (UniProt Q9Y6E0)", "assay": "Inhibition of human MST3 assessed as residual activity at 1 uM using casein as substrate in presence of 33P-ATP by ProQinase assay relative to control"}, "[14]": {"biological_target": "T1, Tyrosine-protein kinase Tec (Homo sapiens) (UniProt P42680)", "T1 sequence (whole entry)": "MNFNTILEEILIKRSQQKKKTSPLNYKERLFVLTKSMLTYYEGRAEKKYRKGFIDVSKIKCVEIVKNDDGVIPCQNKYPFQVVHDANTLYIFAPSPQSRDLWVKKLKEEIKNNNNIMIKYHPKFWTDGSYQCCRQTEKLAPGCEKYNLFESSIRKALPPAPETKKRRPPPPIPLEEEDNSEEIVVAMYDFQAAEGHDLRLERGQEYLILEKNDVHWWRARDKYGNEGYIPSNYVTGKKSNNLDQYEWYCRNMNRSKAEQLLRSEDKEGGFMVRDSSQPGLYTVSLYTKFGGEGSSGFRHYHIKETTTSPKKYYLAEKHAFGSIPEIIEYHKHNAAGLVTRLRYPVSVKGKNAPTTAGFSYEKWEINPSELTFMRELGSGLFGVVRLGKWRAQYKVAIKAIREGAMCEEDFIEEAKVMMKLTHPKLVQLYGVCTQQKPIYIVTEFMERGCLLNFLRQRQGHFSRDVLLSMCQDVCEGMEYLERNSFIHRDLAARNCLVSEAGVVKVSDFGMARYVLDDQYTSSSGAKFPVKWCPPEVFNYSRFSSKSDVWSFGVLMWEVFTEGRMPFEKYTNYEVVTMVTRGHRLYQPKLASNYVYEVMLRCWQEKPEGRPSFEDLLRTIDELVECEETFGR", "assay": "Inhibition of human TEC assessed as residual activity at 1 uM using polyEY as substrate in presence of 33P-ATP by ProQinase assay relative to control"}, "[15]": {"biological_target": "T2, Calcium/calmodulin-dependent protein kinase type IV (Homo sapiens) (UniProt Q16566)", "T2 sequence (whole entry)": "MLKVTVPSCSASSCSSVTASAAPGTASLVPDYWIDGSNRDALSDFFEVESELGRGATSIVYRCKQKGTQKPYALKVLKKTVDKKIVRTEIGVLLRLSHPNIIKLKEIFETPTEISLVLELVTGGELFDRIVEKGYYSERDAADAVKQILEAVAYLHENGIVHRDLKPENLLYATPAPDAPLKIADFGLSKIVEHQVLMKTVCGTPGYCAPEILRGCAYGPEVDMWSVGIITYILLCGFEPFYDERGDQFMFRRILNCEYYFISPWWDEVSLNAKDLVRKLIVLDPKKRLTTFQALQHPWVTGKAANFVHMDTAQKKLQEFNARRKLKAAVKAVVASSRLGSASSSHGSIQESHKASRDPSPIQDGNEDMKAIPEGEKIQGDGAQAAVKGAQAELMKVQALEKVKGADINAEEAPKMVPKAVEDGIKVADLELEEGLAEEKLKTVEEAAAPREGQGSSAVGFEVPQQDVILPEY", "assay": "Inhibition of human CAMK4 assessed as residual activity at 1 uM using JUN as substrate in presence of 33P-ATP by ProQinase assay relative to control"}, "[16]": {"assay": "Anti-inflammatory activity against human derived medium respond PBMC cells assessed as inhibition in stimulated IL-1beta cytokine release incubated for 2 hrs in the presence of LPS/SEB/aCD28 by Luminex based sandwich immunoassay", "assay_type": "functional, cell-based"}, "[17]": {"biological_target": "Dual specificity mitogen-activated protein kinase kinase 1 (Homo sapiens) (UniProt Q02750)", "sequence (Q02750 whole entry)": "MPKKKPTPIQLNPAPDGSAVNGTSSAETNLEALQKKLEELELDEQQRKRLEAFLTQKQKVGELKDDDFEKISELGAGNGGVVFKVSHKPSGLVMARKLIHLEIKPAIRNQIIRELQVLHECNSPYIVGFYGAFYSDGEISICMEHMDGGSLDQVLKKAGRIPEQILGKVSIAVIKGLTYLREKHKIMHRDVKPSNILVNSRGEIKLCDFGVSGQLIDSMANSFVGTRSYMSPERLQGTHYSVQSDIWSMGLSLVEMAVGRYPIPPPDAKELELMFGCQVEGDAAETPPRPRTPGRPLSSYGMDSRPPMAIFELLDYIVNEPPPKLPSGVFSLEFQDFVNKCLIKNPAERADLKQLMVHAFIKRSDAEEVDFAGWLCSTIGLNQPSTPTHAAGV", "assay": "Inhibition of MEK1 (unknown origin) assessed as remaining activity at 1 uM by Kinome scan method relative to control"}, "[18]": {"biological_target": "Receptor tyrosine-protein kinase erbB-2 (Homo sapiens) (UniProt P04626)", "sequence (P04626 whole entry)": "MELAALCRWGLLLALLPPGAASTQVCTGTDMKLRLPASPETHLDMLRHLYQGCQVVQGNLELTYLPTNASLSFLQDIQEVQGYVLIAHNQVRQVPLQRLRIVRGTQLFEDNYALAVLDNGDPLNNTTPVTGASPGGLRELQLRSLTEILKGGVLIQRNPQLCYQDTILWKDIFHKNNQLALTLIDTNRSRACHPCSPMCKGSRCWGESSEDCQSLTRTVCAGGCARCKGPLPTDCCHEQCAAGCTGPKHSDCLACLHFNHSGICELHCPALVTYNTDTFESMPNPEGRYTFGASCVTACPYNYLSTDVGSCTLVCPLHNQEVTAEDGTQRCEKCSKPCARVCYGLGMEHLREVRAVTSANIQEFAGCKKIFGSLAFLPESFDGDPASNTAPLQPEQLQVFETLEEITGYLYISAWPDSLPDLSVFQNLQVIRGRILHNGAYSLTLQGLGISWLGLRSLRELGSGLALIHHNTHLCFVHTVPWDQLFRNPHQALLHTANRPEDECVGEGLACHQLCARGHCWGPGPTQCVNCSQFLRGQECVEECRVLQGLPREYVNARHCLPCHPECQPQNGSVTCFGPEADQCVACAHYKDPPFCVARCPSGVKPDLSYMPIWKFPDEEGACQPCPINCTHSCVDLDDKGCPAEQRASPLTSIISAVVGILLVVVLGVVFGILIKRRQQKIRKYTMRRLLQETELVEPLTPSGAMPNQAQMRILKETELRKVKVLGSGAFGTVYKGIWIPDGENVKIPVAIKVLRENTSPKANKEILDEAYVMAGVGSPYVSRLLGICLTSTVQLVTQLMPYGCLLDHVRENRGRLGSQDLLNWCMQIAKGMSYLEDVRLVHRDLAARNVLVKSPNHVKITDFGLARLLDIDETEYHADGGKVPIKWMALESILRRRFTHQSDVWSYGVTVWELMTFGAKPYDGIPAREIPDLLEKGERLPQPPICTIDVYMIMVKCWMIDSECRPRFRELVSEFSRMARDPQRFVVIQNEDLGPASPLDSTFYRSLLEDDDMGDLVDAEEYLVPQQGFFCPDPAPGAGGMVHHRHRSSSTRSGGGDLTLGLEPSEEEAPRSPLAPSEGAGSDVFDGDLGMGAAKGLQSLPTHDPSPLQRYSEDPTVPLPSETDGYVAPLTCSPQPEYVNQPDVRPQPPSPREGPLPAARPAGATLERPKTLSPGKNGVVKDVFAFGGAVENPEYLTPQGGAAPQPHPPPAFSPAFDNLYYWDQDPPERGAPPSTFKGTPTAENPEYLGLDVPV", "assay": "Inhibition of human ERBB2 assessed as residual activity at 1 uM using polyEY as substrate in presence of 33P-ATP by ProQinase assay relative to control"}}, "data": [{"smiles": "O=C1c2ccc(Nc3ccc(F)cc3F)cc2CCc2ccc(OC[C@H](O)CO)cc21", "note": "[Skepinone-L]", "values": [{"measurement": "Activity", "setting": "[1]", "result": 100, "unit": "%"}, {"measurement": "IC50", "setting": "[2]", "result": "Not Active"}, {"measurement": "Activity", "setting": "[3]", "result": 89, "unit": "%"}, {"measurement": "Activity", "setting": "[4]", "result": 100, "unit": "%"}, {"measurement": "Activity", "setting": "[5]", "result": 120, "unit": "%"}, {"measurement": "Activity", "setting": "[6]", "result": 90, "unit": "%"}, {"measurement": "Activity", "setting": "[7]", "result": 100, "unit": "%"}, {"measurement": "Activity", "setting": "[8]", "result": 91, "unit": "%"}, {"measurement": "Activity", "setting": "[9]", "result": 89, "unit": "%"}, {"measurement": "inhibition in vivo at 3 mg/kg", "setting": "Mus musculus", "result": 77, "unit": "%"}, {"measurement": "Activity", "setting": "[10]", "result": 97, "unit": "%"}, {"measurement": "Activity", "setting": "[11]", "result": 100, "unit": "%"}, {"measurement": "Activity", "setting": "[12]", "result": 88, "unit": "%"}, {"measurement": "Activity", "setting": "[13]", "result": 106, "unit": "%"}, {"measurement": "Activity", "setting": "[14]", "result": 115, "unit": "%"}, {"measurement": "Activity", "setting": "[15]", "result": 111, "unit": "%"}, {"measurement": "IC50", "setting": "[16]", "result": 1590, "unit": "nM"}, {"measurement": "Activity", "setting": "[17]", "result": 86, "unit": "%"}, {"measurement": "Activity", "setting": "[18]", "result": 91, "unit": "%"}]}]}
